How the values were obtained:
HIV-1 = assay: HIV inhibition assay of acutely infected CEM cells (tetrazolium/MTT colorimetric); type: cell-based; conditions: Table 7, CEM cells acutely infected with HIV-1, 7 days, MTT
Protocol: The effectiveness of the compounds listed in Table 7 were determined in the above-described enzyme assay and in a CEM cell assay.
(§1) Methods 20, 309-321 (1988).

HIV protease = target: T1, HIV protease (Human immunodeficiency virus type 1 group M subtype B, UniProt P04585); assay: HIV protease enzyme assay (fluorogenic substrate 2-aminobenzoyl-Ile-Nle-Phe(p-NO2)-Gln-ArgNH2); type: biochemical
T1 construct: HIV protease is diluted in the assay buffer to a final enzyme concentration of 12.3 nanomolar, based on a molecular weight of 10,780
Text: The compounds of the present invention are effective HIV protease inhibitors. Utilizing an enzyme assay as described below, the compounds set forth in the examples herein disclosed inhibited the HIV enzyme. The preferred compounds of the present invention and their calculated IC50 (inhibiting concentration 50%, i.e., the concentration at which the inhibitor compound reduces enzyme activity by 50%) values are shown in Table 6. The enzyme method is described below. The substrate is 2-aminobenzoyl-Ile-Nle-Phe(p-NO2)-Gln-ArgNH2. The positive control is MVT-101 (Miller, M. et al, Science, 246, 1149 (1989)] The assay conditions are as follows: Assay buffer: • 20 mM sodium phosphate, pH 6.4 • 20% glycerol • 1 mM EDTA • 1 mM DTT • 0.1% CHAPS
The above described substrate is dissolved in DMSO, then diluted 10 fold in assay buffer. Final substrate concentration in the assay is 80 µM.
HIV protease is diluted in the assay buffer to a final enzyme concentration of 12.3 nanomolar, based on a molecular weight of 10,780.
The final concentration of DMSO is 14% and the final concentration of glycerol is 18%. The test compound is dissolved in DMSO and diluted in DMSO to 10x the test concentration; 10 µl of the enzyme preparation is added, the materials mixed and then the mixture is incubated at ambient temperature for 15 minutes. The enzyme reaction is initiated by the addition of 40µl of substrate. The increase in fluorescence is monitored at 4 time points (0, 8, 16 and 24 minutes) at ambient temperature. Each assay is carried out in duplicate wells.

CEM cells = assay: Intrinsic toxicity of test compound in uninfected CEM cells (MTT); type: cell-based; conditions: Table 7, CEM cells without virus, 7 days, read-out: TD50 (the source's name)
Text: as §1

[1] = Table 6, 80 µM substrate, 12.3 nanomolar enzyme, pH 6.4
[2] = Table 7, above-described enzyme assay

Molecule | EC50 (HIV-1; Human immunodeficiency virus 1, CCRF-CEM, 168 h) [nM] | IC50 (HIV protease; [1]) [nM] | EC50 (HIV-1) [nM] | IC50 (HIV protease; [2]) [nM] | CC50 (CEM cells) [nM]
COc1ccc(COC(=O)N[C@@H](Cc2ccccc2)[C@H](O)CN(CCC(C)C)C(=O)NC(C)(C)C)cc1 (relative stereo) [Carbamic acid, [3-[[[(1,1-dimethylethyl)amino]carbonyl](3-methylbutyl)amino]-2-hydroxy-1-(phenylmethyl)propyl]-, (4-methoxyphenyl)methyl ester, [1S-[1R*,2S*]]] | 820 | 489 |  |  | 
CC(C)CCN(C[C@@H](O)[C@H](Cc1ccccc1)NC(=O)OCc1ccccc1)C(=O)NC(C)(C)C (relative stereo) [Carbamic acid, [3-[[[(1,1-dimethylethyl)amino]carbonyl](3-methylbutyl)amino]-2-hydroxy-1-(phenylmethyl)propyl]-, phenylmethyl ester, [1S-[1R*,2S*]]] |  | 112 |  |  | 
CC(C)C[C@H](NC(=O)[C@@H](N)Cc1ccccc1)C(=O)NC(=O)NC[C@H](O)[C@H](Cc1ccccc1)NC(=O)OC(C)(C)C [(2S,3S)-3-(N-1,1-dimethylethoxycarbonyl)amido-1-(L-phenylalanyl-L-leucylcarbamoyl)amino-4-phenyl butanol] |  | 5000 | 13000 | 5000 | 54000
Phenylmethylamide, N-[3-[[[(1,1-dimethylethyl)amino]carbonyl](3-methylbutyl)amino]-2-hydroxy-1-(phenylmethyl)propyl]-3,3-dimethyl-, [1S-[1R*,2S*]] |  | 850 |  | 850 | 
